Drawing on paper PMC4078514, “A Bombesin-Shepherdin Radioconjugate Designed for Combined Extra- and Intracellular Targeting” (Pharmaceuticals, 2014), this text covers logD, applied radioactivity internalized and Kd for two compounds.

Data set [1] in a line: LogD determination, shake flask method (n-octanol/PBS). Format: physicochemical. To be noted: shake-flask n-octanol/PBS pH 7.4 (1:1, 1 mL, pre-saturated); 10 µL (1 µM) radiolabeled peptide; vortexed 1 min, centrifuged 3,000 rpm 10 min; gamma counter read-out; 2-3 experiments each in quintets, mean ± SD. On the procedure:
The hydrophilicity of the radiolabeled peptides 12–16 was evaluated by determination of their partition coefficient between n-octanol and phosphate buffered saline (PBS, pH 7.4) using the shake flask method. In brief, 10 µL (1 µM) of radiolabeled peptides 12–16 were added to a pre-saturated solution of n-octanol and PBS (1:1, 1 mL) and the tubes were vortexed (1 min) and centrifuged (3,000 rpm, 10 min). Aliquots of 100 µL of each phase were radiometrically measured in a gamma counter and the logD values were calculated by the logarithm of the ratio between the radioactive counts in the octanol fraction and the radioactive counts in the PBS fraction. The experiment was performed 2–3 times, each in quintets, and results are reported by mean values ± standard deviation (SD).

Data set [2] relates to GRP-r overexpressing PC-3 cells. Nature of the data set: Internalization assay in PC-3 cells. Format: cell-based, human. To be noted: 0.25 pmol, 1.5-2.0 kBq/well, within 30-60 min, percentage of applied dose normalized to 10^6 cells, n = 2-3 in triplicates, approximate. On the procedure:
Cell culturing of human prostate adenocarcinoma (PC-3) cells and in vitro assays (internalization, receptor saturation binding, and externalization) were performed as previously described and are thus described only in brief.
For the determination of cellular uptake, PC-3 cells were incubated with the radiolabeled peptides [^99mTc(CO)3(L)] (L = 14–16; 0.25 pmol; 1.5–2.0 kBq/well) for different time points to allow binding and internalization. Non-specific receptor binding and internalization was determined by incubating the cells with excess of natural bombesin(1–14) as a receptor blocking agent. At each time point, the supernatant was collected, representing the free radiopeptide fraction. The cell surface receptor bound fraction was obtained by treating the cells with an acidic saline glycine buffer (100 mM NaCl, 50 mM glycine, pH 2.8; 2 times for 5 min, on ice). The internalized fraction was determined by cell lysis with 1 M NaOH (10 min). Fractions of free, receptor-bound, and internalized radiopeptide were radiometrically measured in the gamma counter and calculated as percentage of applied dose normalized to 10^6 cells for all time points (n = 2–3 in triplicates, reported by means ± SD). […]

Another data set has as its target Hsp90. To be noted: reported high affinity; read-out: affinity towards Hsp90; cited from earlier work.

Broadly, the logD is the decadic logarithm of the distribution of all forms, ionised or not, between an organic phase and buffer at a given pH.

In the case of `CCCC[C@H](NC(=O)[C@H](CC(C)C)NC(=O)[C@H](Cc1c[nH]cn1)NC(=O)CNC(=O)[C@@H](NC(=O)[C@H](C)NC(=O)[C@H](Cc1c[nH]c2ccccc12)NC(=O)[C@H](CCC(N)=O)NC(=O)CCNC(=O)CCNC(=O)CCNC(=O)Cn1cc(CN[C@@H](CCCCNC(C)=O)C(=O)O)nn1)C(C)C)C(N)=O` [[^99mTc(CO)3(16)], metal not drawn], in data set [1], the logD is -0.44 ± 0.07. For the same compound, in data set [2], the applied radioactivity internalized is recorded as 25%–30%.

KHSSG [shepherdin(79–83)]: the Kd at Hsp90 was 80 nM.
